# In ChEMBL document CHEMBL1177848, “Synthesis of novel 6,6a,7,8-tetrahydro-5H-naphtho[1,2-e]pyrimido[4,5-b][1,4]diazepines under microwave irradiation as potential anti-tumor agents” (2010):
# The source made the active and inactive calls. The calls are words filed in the database; no cut-off is given here.
# Assays:
# SN12C = assay: Growth inhibition of human SN12C cells at 1 uM after 48 hrs by sulforhodamine B assay; type: functional, cell-based
# HCT-15 = assay: Growth inhibition of human HCT15 cells after 48 hrs by sulforhodamine B assay; type: functional; conditions: HCT-15, 48 h
# HCT-116 [1] = assay: Growth inhibition of human HCT116 cells at 1 uM after 48 hrs by sulforhodamine B assay; type: functional, cell-based
# NCI-H522 = assay: Growth inhibition of human NCI-H522 cells at 1 uM after 48 hrs by sulforhodamine B assay; type: functional, cell-based
# MDA-MB-435 = assay: Growth inhibition of human MDA-MB-435 cells at 1 uM after 48 hrs by sulforhodamine B assay; type: functional, cell-based
# SF-295 = assay: Growth inhibition of human SF295 cells at 1 uM after 48 hrs by sulforhodamine B assay; type: functional, cell-based
# MDA-MB-231 = assay: Growth inhibition of human MDA-MB-231 cells after 48 hrs by sulforhodamine B assay; type: functional; conditions: MDA-MB-231, 48 h
# A498 = assay: Growth inhibition of human A498 cells at 1 uM after 48 hrs by sulforhodamine B assay; type: functional, cell-based
# SF-268 = assay: Growth inhibition of human SF268 cells at 1 uM after 48 hrs by sulforhodamine B assay; type: functional, cell-based
# CCRF-CEM = assay: Growth inhibition of human CCRF-CEM cells at 1 uM after 48 hrs by sulforhodamine B assay; type: functional, cell-based
# SK-MEL-5 = assay: Growth inhibition of human SK-MEL-5 cells after 48 hrs by sulforhodamine B assay; type: functional; conditions: SK-MEL-5, 48 h
# UO-31 = assay: Growth inhibition of human UO31 cells at 1 uM after 48 hrs by sulforhodamine B assay; type: functional, cell-based
# SK-MEL-28 = assay: Growth inhibition of human SK-MEL-28 cells at 1 uM after 48 hrs by sulforhodamine B assay; type: functional, cell-based
# SW-620 [2] = assay: Growth inhibition of human SW620 cells at 1 uM after 48 hrs by sulforhodamine B assay; type: functional, cell-based
# EKVX [3] = assay: Growth inhibition of human EKVX cells after 48 hrs by sulforhodamine B assay; type: functional
# U-251 = assay: Growth inhibition of human U251 cells after 48 hrs by sulforhodamine B assay; type: functional; conditions: U-251, 48 h
# SR = assay: Growth inhibition of human SR cells after 48 hrs by sulforhodamine B assay; type: functional
# RPMI-8226 [4] = assay: Growth inhibition of human RPMI8226 cells at 1 uM after 48 hrs by sulforhodamine B assay; type: functional, cell-based
# SK-MEL-2 = assay: Growth inhibition of human SK-MEL-2 cells at 1 uM after 48 hrs by sulforhodamine B assay; type: functional, cell-based
# T47D = assay: Growth inhibition of human T47D cells at 1 uM after 48 hrs by sulforhodamine B assay; type: functional, cell-based
# NCI-H226 = assay: Growth inhibition of human NCI-H226 cells at 1 uM after 48 hrs by sulforhodamine B assay; type: functional, cell-based
# KM12 [5] = assay: Growth inhibition of human KM12 cells at 1 uM after 48 hrs by sulforhodamine B assay; type: functional, cell-based
# M14 = assay: Growth inhibition of human M14 cells at 1 uM after 48 hrs by sulforhodamine B assay; type: functional, cell-based
# HCT-116 [6] = assay: Growth inhibition of human HCT116 cells after 48 hrs by sulforhodamine B assay; type: functional; conditions: HCT-116, 48 h
# OVCAR-3 [7] = assay: Growth inhibition of human OVCAR-3 cells at 1 uM after 48 hrs by sulforhodamine B assay; type: functional, cell-based
# HT-29 = assay: Growth inhibition of human HT-29 cells after 48 hrs by sulforhodamine B assay; type: functional; conditions: HT-29, 48 h
# OVCAR-4 [8] = assay: Growth inhibition of human OVCAR4 cells after 48 hrs by sulforhodamine B assay; type: functional; conditions: OVCAR-4, 48 h
# KM12 [9] = assay: Growth inhibition of human KM12 cells after 48 hrs by sulforhodamine B assay; type: functional; conditions: KM12, 48 h
# Malme-3M = assay: Growth inhibition of human MALME-3M cells after 48 hrs by sulforhodamine B assay; type: functional
# RXF 393 = assay: Growth inhibition of human RXF393 cells at 1 uM after 48 hrs by sulforhodamine B assay; type: functional, cell-based
# A549 = assay: Growth inhibition of human A549 cells at 1 uM after 48 hrs by sulforhodamine B assay; type: functional, cell-based
# HOP-92 = assay: Growth inhibition of human HOP92 cells after 48 hrs by sulforhodamine B assay; type: functional; conditions: HOP-92, 48 h
# MDA-MB-468 = assay: Growth inhibition of human MDA-MB-468 cells after 48 hrs by sulforhodamine B assay; type: functional; conditions: MDA-MB-468, 48 h
# LOX IMVI = assay: Growth inhibition of human LOXIMVI cells after 48 hrs by sulforhodamine B assay; type: functional
# OVCAR-3 [10] = assay: Growth inhibition of human OVCAR-3 cells after 48 hrs by sulforhodamine B assay; type: functional; conditions: OVCAR-3, 48 h
# ACHN = assay: Growth inhibition of human ACHN cells at 1 uM after 48 hrs by sulforhodamine B assay; type: functional, cell-based
# EKVX [11] = assay: Growth inhibition of human EKVX cells at 1 uM after 48 hrs by sulforhodamine B assay; type: functional, cell-based
# COLO 205 = assay: Growth inhibition of human COLO205 cells after 48 hrs by sulforhodamine B assay; type: functional; conditions: COLO 205, 48 h
# SF-539 = assay: Growth inhibition of human SF539 cells at 1 uM after 48 hrs by sulforhodamine B assay; type: functional, cell-based
# NCI/ADR-RES = assay: Growth inhibition of human NCI/ADR-RES cells after 48 hrs by sulforhodamine B assay; type: functional
# PC-3 = assay: Growth inhibition of human PC3 cells after 48 hrs by sulforhodamine B assay; type: functional; conditions: PC-3, 48 h
# HL-60 = assay: Growth inhibition of human HL-60(TB) cells at 1 uM after 48 hrs by sulforhodamine B assay; type: functional, cell-based
# OVCAR-4 [12] = assay: Growth inhibition of human OVCAR4 cells at 1 uM after 48 hrs by sulforhodamine B assay; type: functional, cell-based
# RPMI-8226 [13] = assay: Growth inhibition of human RPMI8226 cells after 48 hrs by sulforhodamine B assay; type: functional; conditions: RPMI-8226, 48 h
# HOP-62 = assay: Growth inhibition of human HOP62 cells at 1 uM after 48 hrs by sulforhodamine B assay; type: functional, cell-based
# SW-620 [14] = assay: Growth inhibition of human SW620 cells after 48 hrs by sulforhodamine B assay; type: functional; conditions: SW-620, 48 h
# [15] = read-out: LC50 (the source's name)
compound,measurement,setting,value
Nc1nc(N)c2c(n1)NC(c1ccc(F)cc1)C1CCc3ccccc3C1=N2 (stereo unspecified),growth inhibition (GI),SN12C,inactive
same,GI50,HCT-15,3.99 µM
same,LC50,HCT-15,43 µM
same,growth inhibition (GI),HCT-116 [1],inactive
same,growth inhibition (GI),NCI-H522,inactive
same,growth inhibition (GI),MDA-MB-435,inactive
same,growth inhibition (GI),SF-295,inactive
same,GI50,MDA-MB-231,5.8 µM
same,CC50,MDA-MB-231; [15],48.5 µM
same,growth inhibition (GI),A498,inactive
same,growth inhibition (GI),SF-268,inactive
same,growth inhibition (GI),CCRF-CEM,inactive
same,GI50,SK-MEL-5,609 nM
same,LC50,SK-MEL-5,6.03 µM
same,growth inhibition (GI),UO-31,inactive
same,growth inhibition (GI),SK-MEL-28,inactive
same,growth inhibition (GI),SW-620 [2],inactive
same,GI50,EKVX [3],2830 nM
same,LC50,EKVX [3],62.6 µM
same,GI50,U-251,4.29 µM
same,LC50,U-251,44.1 µM
same,GI50,SR,1650 nM
same,LC50,SR,12.5 µM
same,growth inhibition (GI),RPMI-8226 [4],inactive
same,growth inhibition (GI),SK-MEL-2,inactive
same,growth inhibition (GI),T47D,inactive
same,growth inhibition (GI),NCI-H226,inactive
same,growth inhibition (GI),KM12 [5],inactive
same,growth inhibition (GI),M14,inactive
same,GI50,HCT-116 [6],3.04 µM
same,LC50,HCT-116 [6],34.5 µM
same,growth inhibition (GI),OVCAR-3 [7],inactive
same,GI50,HT-29,3.84 µM
same,CC50,HT-29; [15],38.7 µM
same,GI50,OVCAR-4 [8],3.98 µM
same,LC50 (50% lethal concentration),OVCAR-4 [8],50.2 µM
same,GI50,KM12 [9],4.93 µM
same,LC50 (concentration killing 50% of cells),KM12 [9],43.1 µM
same,GI50,Malme-3M,2520 nM
same,LC50,Malme-3M,68.6 µM
same,growth inhibition (GI),RXF 393,inactive
same,growth inhibition (GI),A549,inactive
same,GI50,HOP-92,1170 nM
same,LC50 (50% lethal concentration),HOP-92,31.5 µM
same,GI50,MDA-MB-468,1430 nM
same,CC50,MDA-MB-468; [15],33 µM
same,GI50,LOX IMVI,3.98 µM
same,LC50,LOX IMVI,43 µM
same,GI50,OVCAR-3 [10],4.15 µM
same,"LC50 (lethal concentration, 50% cell kill)",OVCAR-3 [10],43.2 µM
same,growth inhibition (GI),ACHN,inactive
same,growth inhibition (GI),EKVX [11],inactive
same,GI50,COLO 205,1620 nM
same,LC50 (50% lethal concentration),COLO 205,80.7 µM
same,growth inhibition (GI),SF-539,inactive
same,GI50,NCI/ADR-RES,3.19 µM
same,LC50 (concentration killing 50% of cells),NCI/ADR-RES,39.4 µM
same,GI50,PC-3,2030 nM
same,LC50,PC-3,40.3 µM
same,growth inhibition (GI),HL-60,inactive
same,growth inhibition (GI),OVCAR-4 [12],inactive
same,GI50,RPMI-8226 [13],1810 nM
same,LC50,RPMI-8226 [13],62.8 µM
same,growth inhibition (GI),HOP-62,inactive
same,GI50,SW-620 [14],4.87 µM
same,LC50,SW-620 [14],42.9 µM
